Consider five compounds from patent publication US20050282734A1 (priority 1998, published 2005).

For data set [1] the following is noted: Magri et al. (1988); cited from earlier work.
For data set [2] the following is noted: mice, co-administered P-glycoprotein blocker; cited from earlier work.
In another data set the target is HSA (Homo sapiens, UniProt P02768). The data set can be described thus: Effect of antioxidants on HSA dimerization at acidic pH (SDS-PAGE, reducing and non-reducing). As to conditions: acidification of commercial HSA to pH 3.0-3.3; compared with ascorbic acid, L-cysteine, sodium thiosulfate.
Sequence of HSA (P02768 25-609): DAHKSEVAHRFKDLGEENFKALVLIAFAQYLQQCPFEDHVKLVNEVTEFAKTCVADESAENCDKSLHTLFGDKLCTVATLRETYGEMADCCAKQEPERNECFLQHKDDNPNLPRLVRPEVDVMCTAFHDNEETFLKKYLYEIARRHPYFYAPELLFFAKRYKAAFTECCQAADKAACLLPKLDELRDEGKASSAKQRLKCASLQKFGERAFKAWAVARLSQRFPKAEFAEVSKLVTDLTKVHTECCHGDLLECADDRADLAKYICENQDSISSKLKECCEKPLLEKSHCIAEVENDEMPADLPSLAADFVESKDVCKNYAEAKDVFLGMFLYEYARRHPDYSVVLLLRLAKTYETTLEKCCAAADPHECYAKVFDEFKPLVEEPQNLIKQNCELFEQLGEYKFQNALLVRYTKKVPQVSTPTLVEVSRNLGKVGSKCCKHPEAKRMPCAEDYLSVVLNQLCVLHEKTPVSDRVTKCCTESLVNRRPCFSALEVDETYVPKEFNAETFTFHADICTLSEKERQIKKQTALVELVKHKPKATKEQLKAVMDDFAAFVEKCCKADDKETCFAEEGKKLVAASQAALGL
The target in data set [3] is T1, human serum albumin (HSA) (Homo sapiens, UniProt P02768). The data set can be described thus: Recovery of soluble Ptx and binding to HSA by liquid scintillation counting (radioactive Ptx; R, S, F fractions).
T1 sequence (P02768 25-609): as above
A further data set concerns synoviocytes. As to conditions: in vitro, cited from earlier work.
The nature of data set [4]: Solubility of paclitaxel in aqueous ethanol saline solution (visual turbidity). Format: physicochemical. The procedure: Reagents Preparation • 1. […] A 20-ml physiological saline stock solution was also prepared in a small bottle (or flask) and designated the 1× saline stock solution.
4. The tubes were incubated at room temperature and observed at 0 h, 1 h and 3 h for precipitate formation. The results were recorded as + or − turbidity formation.

The target in data set [5] is T1, human serum albumin (HSA). The data set is described as follows: Paclitaxel binding to HSA: ultrafiltration (10 kDa), free and total Ptx by ELISA and/or reverse-phase HPLC. On the set-up: purchased Desert Biologicals, Phoenix, Ariz. As to conditions: pH 7.1. The procedure: • 1. […] Procedure • 1. […] Saline in water could also be added to the test tubes so that all the test tubes have substantially identical sodium chloride concentrations. • 3. […] The test tubes were covered with a piece of parafilm or in stoppered serum bottles and then incubated at room temperature, with occasional shaking (2 to 3 times). • 6. At 0 hr, 3 hr, and/or 18/24 hr of incubation, the samples were observed qualitatively for precipitate formation. • 7. At the end of the 18-24 hr incubation period, the reaction mixtures were analyzed for turbidity at 600 nm using a Shimadzu 160U UV/visible spectrophotometer (NBI Track #F1174). • 8. […] Analytical methods.
Procedure • 1. […] The test tubes were covered with a parafilm and then incubated at room temperature, with occasional shaking. Alternatively, the mixtures were prepared in stoppered serum vials. • 6.
This unbound fraction can be quantitated by reverse phase HPLC, and/or ELISA.
(In general: In an ELISA, binding on a coated surface is turned into a signal by an enzyme label.)

The test system of another data set is collagenase. The following applies: 10^−7 M paclitaxel, chondrocytes stimulated by tumor necrosis factor and interleukin-1; cited from earlier work.

`CC(=O)O[C@H]1C(=O)[C@@]2(C)[C@H]([C@H](OC(=O)c3ccccc3)[C@]3(O)C[C@H](OC(=O)[C@H](O[Si](C)(C)C(C)(C)C)[C@@H](NC(=O)c4ccccc4)c4ccccc4)C(C)=C1C3(C)C)[C@]1(OC(C)=O)CO[C@@H]1C[C@@H]2O` [2′-(t-butyldimethylsilyl)taxol]: the “in vivo activity compared with paclitaxel” value in data set [1] was “essentially inactive”.

As to `C/C=C/C[C@@H](C)C(=O)[C@H]1C(=O)N[C@@H](C(C)C)C(=O)N(C)CC(=O)N(C)[C@@H](CC(C)C)C(=O)N[C@@H](C(C)C)C(=O)N(C)[C@@H](CC(C)C)C(=O)N[C@@H](C)C(=O)N[C@H](C)C(=O)N(C)[C@@H](CC(C)C)C(=O)N(C)[C@@H](CC(C)C)C(=O)N(C)[C@@H](C(C)C)C(=O)N1C` [SDZ PSC 833], the “increase in oral bioavailability of paclitaxel” value in data set [2] is 10 fold.

As to `O[C@H](CS)[C@@H](O)CS` [DTE, dithioerythritol], the “effectiveness in minimizing the HSA dimerization reaction” value at HSA is listed as “most effective”.

As to `CC(=O)O[C@H]1C(=O)[C@@]2(C)[C@H]([C@H](OC(=O)c3ccccc3)[C@]3(O)C[C@H](OC(=O)[C@H](O)[C@@H](NC(=O)c4ccccc4)c4ccccc4)C(C)=C1C3(C)C)[C@]1(OC(C)=O)CO[C@@H]1C[C@@H]2O` [Ptx, paclitaxel], in data set [3], the “chemical stability of Ptx in alkaline pH formulations” value was “poor”. Also, the “concentration cytotoxic to the synoviocytes” value in the data set on synoviocytes is given as 10^−6 to 10^−5 M. Moreover, the “concentration inhibiting proliferation of synoviocytes and inducing apoptosis” value in the data set on synoviocytes (concentrations as low as) was 10^−7 M. For the same compound, the “time until paclitaxel solutions turned cloudy” value in data set [4] (500 μg/ml paclitaxel, 20% ethanol or less, room temperature) is not above 5 min. Also, the “paclitaxel concentration at which solutions remained clear for at least 3 hours” value in data set [4] (aqueous ethanol saline solutions, room temperature) is not above 50 µg/mL. Besides, the “paclitaxel concentration at which clear solutions were obtained” value in data set [4] (aqueous ethanol solutions (5% to 25%), after a 1-h incubation at room temperature) is given as “less than 100 μg/ml”. For the same compound, the “solubility of paclitaxel at 500 μg/ml” value in data set [4] (saline solution containing up to 25% ethanol, after 1 hr) is “not soluble”. In addition, the recovery at 50 μg/mL in data set [5] (defatted human serum albumin (HSA) solution) was 73%; in data set [5] (non-defatted human serum albumin (HSA) solution) it was 89%. Further, in the data set with collagenase, the “reduction of collagenase expression” value was “over 50%”.

`CC(=O)O[C@H]1C(=O)[C@@]2(C)[C@H]([C@H](OC(=O)c3ccccc3)[C@]3(O)C[C@H](OC(=O)[C@H](OC(=O)CCC(=O)O)[C@@H](NC(=O)c4ccccc4)c4ccccc4)C(C)=C1C3(C)C)[C@]1(OC(C)=O)CO[C@@H]1C[C@@H]2O` [2′-succinyltaxol]: in data set [1], the “in vivo activity compared with paclitaxel” value is on record as “decreased in vivo activity”.
